Consider 7 molecules from patent US9546172B2, “Pyrazolo[3,4-d]pyrimidine and pyrazolo[2,3-d]pyrimidine compounds as kinase inhibitors” (Pharmacyclics LLC, priority 2011, dated 2017).

What all share (format): biochemical
One test has as its target T1, Btk (Homo sapiens, UniProt Q06187).
T1 construct: purified from insect cells as a full-length construct containing a N-terminal 6×-His tag; 6xHis (N); host or cells: insect cells (baculovirus Sf21 in Method B)
The experiment in a line: Btk in vitro inhibitory activity (one of Methods A, B, C). The settings on record: determined in one of three in vitro assays (Examples 125-127). Here is the method:
The Btk IC50s of compounds disclosed herein was determined in one of the three in vitro assays described in Examples 125-127.
(§1) Btk kinase activity was determined using a time-resolved fluorescence resonance energy transfer (TR-FRET) methodology. Measurements were performed in a reaction volume of 50 μL using 96-well assay plates. […] The reaction was quenched by the addition of 1.2 equivalents of EDTA (relative to divalent cation) in 25 μL of 1× Lance buffer (Perkin-Elmer). Streptavidin-APC (Perkin-Elmer) and Eu-labeled p-Tyr100 antibody (Perkin-Elmer) in 1× Lance buffer were added in a 25 μL volume to give final concentrations of 100 nM and 2.5 nM, respectively, and the mixture was allowed to incubate for one hour. The TR-FRET signal was measured on a multimode plate reader with an excitation wavelength (λEx) of 330 nm and detection wavelengths (λEm) of 615 and 665 nm. Activity was determined by the ratio of the fluorescence at 665 nm to that at 615 nm. For each compound, enzyme activity was measured at various concentrations of compound. Negative control reactions were performed in the absence of inhibitor in replicates of six, and two no-enzyme controls were used to determine baseline fluorescence levels Inhibition constants, Ki(app), were obtained using the program BatchKi (Kuzmic et al. (2000), Anal. Biochem. 286:45-50). IC50s were obtained according to the equation: IC50={Ki(app)/(1+[ATP]/Km^ATP)}+[E]total/2; For all kinases, [ATP]=Km^ATP, [Btk]total=0.5 nM and [Lck]total=6 nM.
Kinase activity is measured in vitro using electrophoretic mobility shift assay. The kinase reactions are assembled in a total volume of 25 μL in 384 well plates. […] The reaction is incubated for one hour and is quenched by the addition of 45 μL of termination buffer (100 mM HEPES, pH7.5, 0.01% Triton X-100, 30 mM EDTA). The terminated reactions are analyzed using 12 channel LabChip® 3000 microfluidic detection instrument (Caliper Life Sciences). The enzymatic phosphorylation of the peptide results in a change in net charge, enabling electrophoretic separation of product from substrate peptide. As substrate and product peptides are separated, two peaks of fluorescence are observed. Change in the relative fluorescence intensity of the substrate and product peaks is the parameter measured, reflecting enzyme activity. In the presence of an inhibitor, the ratio between product and substrate is altered: the signal of the product decreases, while the signal of the substrate increases.
Activity in each sample is determined as the product to sum ratio (PSR): P/(S+P), where P is the peak height of the product peptide and S is the peak height of the substrate peptide. For each compound, enzyme activity is measured at various concentrations (12 concentrations of compound spaced by 3× dilution intervals). Negative control samples (0%-inhibition in the absence of inhibitor) and positive control samples (100%-inhibition, in the presence of 20 mM EDTA) are assembled in replicates of four and are used to calculate %-inhibition values for each inhibitor at each concentration. Percent inhibition (Pinh) is determined using following equation: Pinh=(PSR0%−PSRinh)/(PSR0%−PSR100%)*100, where PSRinh is the product sum ratio in the presence of inhibitor, PSR0% is the average product sum ration in the absence of inhibitor and PSR100% is the average product sum ratio in 100%-inhibition control samples;
The IC50 values of inhibitors are determined by 4 parameter sigmoidal dose-response model fitting of the inhibition curves (Pinh versus inhibitor concentration) using XLfit 4 software.
Human Btk kinase (Genbank accession # NP_000052) was purified from insect cells as a full-length construct containing a N-terminal 6×-His tag. Btk kinase activity was determined using a radiometric filter binding assay. Measurements are performed in a low reaction volume 384-well assay plates. […]

A further test addresses T2, BMX (Homo sapiens, UniProt P51813).
T2 sequence (P51813 1-675): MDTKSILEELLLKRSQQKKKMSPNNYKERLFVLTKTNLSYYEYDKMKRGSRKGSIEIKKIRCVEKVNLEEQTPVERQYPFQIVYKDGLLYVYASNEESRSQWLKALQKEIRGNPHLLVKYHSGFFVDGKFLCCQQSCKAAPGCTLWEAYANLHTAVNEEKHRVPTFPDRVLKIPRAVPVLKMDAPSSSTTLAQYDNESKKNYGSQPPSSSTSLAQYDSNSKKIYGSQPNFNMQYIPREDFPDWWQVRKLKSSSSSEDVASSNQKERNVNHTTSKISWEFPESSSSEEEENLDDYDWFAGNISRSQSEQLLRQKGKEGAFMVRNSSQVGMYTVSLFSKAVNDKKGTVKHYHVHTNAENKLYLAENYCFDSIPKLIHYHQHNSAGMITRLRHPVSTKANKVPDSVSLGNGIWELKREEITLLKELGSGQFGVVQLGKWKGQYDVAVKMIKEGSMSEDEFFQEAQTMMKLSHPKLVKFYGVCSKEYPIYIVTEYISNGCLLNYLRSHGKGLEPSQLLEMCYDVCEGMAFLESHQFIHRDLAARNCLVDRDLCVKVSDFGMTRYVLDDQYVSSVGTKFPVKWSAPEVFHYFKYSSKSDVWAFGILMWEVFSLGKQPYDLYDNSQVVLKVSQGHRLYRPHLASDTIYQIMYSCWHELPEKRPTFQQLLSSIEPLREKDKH
The experiment in a line: BMX kinase inhibition.

Another test addresses T3, Tec (Homo sapiens, UniProt P42680).
T3 sequence (P42680 1-631): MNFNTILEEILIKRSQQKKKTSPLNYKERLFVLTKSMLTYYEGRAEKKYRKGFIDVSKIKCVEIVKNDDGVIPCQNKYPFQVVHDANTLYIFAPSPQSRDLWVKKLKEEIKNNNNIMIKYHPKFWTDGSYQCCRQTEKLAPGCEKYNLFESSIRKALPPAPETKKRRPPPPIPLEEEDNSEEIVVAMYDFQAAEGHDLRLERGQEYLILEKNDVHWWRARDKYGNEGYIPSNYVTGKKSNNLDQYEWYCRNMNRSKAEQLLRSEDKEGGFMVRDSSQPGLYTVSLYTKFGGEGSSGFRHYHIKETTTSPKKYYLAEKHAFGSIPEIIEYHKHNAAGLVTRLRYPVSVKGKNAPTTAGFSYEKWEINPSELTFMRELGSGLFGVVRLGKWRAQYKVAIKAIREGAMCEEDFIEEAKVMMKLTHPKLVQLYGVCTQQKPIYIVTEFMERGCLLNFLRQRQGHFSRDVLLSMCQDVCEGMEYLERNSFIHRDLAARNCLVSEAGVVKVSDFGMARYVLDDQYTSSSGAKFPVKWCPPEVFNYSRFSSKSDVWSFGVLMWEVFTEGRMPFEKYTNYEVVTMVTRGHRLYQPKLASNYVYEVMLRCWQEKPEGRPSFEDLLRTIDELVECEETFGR
The experiment in a line: Tec kinase inhibition. As to the method:
as §1

Another test addresses C-src (Homo sapiens, UniProt P12931). Description: C-src kinase inhibition. As to the method: as §1
A further test addresses CSK (Homo sapiens, UniProt P41240). The experiment in a line: CSK kinase inhibition.
Another test concerns the target Lck (Homo sapiens, UniProt P06239). The experiment in a line: Lck kinase inhibition. As to the method: as §1
Another test deals with EGFR (Homo sapiens, UniProt P00533). The experiment in a line: EGFR kinase inhibition.
The target of the next test is Lyn (Homo sapiens, UniProt P07948). The experiment in a line: Lyn kinase inhibition.
The target in another test is RET (Homo sapiens, UniProt P07949). The experiment in a line: RET kinase inhibition.
Another test concerns the target BLK (Homo sapiens, UniProt P51451). Description: BLK kinase inhibition. Here is the method:
as §1

Chain of RET (P07949 29-1114): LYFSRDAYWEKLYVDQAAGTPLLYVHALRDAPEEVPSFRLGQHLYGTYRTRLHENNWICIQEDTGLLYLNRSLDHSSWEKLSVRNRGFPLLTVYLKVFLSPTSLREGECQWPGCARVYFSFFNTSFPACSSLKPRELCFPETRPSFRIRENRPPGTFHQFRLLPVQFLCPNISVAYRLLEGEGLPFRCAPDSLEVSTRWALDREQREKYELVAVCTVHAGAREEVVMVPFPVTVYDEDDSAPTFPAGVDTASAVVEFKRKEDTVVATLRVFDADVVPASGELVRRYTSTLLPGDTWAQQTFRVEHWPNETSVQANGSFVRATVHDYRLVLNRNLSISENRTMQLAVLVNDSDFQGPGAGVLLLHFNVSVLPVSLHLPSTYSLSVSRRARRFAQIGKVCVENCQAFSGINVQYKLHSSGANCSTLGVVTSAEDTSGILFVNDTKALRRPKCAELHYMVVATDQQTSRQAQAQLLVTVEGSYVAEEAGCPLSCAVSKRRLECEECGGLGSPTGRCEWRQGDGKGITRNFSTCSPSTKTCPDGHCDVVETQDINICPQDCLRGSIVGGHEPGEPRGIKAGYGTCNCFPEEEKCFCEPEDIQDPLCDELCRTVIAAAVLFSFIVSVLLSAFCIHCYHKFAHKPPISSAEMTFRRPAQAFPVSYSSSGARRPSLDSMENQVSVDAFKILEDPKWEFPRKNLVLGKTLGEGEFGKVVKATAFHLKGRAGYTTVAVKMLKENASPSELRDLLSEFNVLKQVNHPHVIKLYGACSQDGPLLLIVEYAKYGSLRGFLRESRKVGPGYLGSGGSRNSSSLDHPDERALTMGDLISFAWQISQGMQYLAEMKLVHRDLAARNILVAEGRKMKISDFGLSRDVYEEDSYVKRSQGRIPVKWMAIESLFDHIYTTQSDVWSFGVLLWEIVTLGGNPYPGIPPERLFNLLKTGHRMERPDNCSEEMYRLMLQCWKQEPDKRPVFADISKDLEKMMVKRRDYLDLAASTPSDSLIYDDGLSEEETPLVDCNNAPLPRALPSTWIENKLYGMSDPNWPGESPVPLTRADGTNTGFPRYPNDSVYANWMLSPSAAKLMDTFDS
Chain of CSK (P41240 whole entry): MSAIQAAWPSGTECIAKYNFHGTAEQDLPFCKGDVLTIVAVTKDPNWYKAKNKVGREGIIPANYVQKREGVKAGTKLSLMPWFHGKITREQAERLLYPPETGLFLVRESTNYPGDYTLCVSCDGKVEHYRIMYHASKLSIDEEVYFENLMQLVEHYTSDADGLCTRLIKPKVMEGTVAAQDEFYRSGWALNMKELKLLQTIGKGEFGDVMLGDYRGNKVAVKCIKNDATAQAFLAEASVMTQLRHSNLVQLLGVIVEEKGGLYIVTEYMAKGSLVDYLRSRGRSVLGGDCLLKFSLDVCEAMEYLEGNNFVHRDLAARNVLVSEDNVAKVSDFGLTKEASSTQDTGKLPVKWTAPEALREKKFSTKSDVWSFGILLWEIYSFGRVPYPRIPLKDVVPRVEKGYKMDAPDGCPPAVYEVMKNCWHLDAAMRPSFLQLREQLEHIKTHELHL
Chain of BLK (P51451 whole entry): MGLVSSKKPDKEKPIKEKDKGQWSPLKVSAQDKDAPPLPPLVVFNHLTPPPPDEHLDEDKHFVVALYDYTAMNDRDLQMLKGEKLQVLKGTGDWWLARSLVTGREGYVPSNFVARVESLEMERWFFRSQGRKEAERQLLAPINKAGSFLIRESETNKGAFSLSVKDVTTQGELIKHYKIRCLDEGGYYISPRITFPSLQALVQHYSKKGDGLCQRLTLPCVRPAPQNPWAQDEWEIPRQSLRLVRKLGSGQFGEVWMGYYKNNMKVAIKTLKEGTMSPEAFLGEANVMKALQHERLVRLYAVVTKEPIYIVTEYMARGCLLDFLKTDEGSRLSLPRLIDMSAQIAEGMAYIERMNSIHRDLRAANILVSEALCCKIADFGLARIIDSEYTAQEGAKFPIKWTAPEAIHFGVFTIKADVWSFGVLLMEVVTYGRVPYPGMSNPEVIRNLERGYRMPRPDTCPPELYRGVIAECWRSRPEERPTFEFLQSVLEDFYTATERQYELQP
Chain of Lck (P06239 whole entry): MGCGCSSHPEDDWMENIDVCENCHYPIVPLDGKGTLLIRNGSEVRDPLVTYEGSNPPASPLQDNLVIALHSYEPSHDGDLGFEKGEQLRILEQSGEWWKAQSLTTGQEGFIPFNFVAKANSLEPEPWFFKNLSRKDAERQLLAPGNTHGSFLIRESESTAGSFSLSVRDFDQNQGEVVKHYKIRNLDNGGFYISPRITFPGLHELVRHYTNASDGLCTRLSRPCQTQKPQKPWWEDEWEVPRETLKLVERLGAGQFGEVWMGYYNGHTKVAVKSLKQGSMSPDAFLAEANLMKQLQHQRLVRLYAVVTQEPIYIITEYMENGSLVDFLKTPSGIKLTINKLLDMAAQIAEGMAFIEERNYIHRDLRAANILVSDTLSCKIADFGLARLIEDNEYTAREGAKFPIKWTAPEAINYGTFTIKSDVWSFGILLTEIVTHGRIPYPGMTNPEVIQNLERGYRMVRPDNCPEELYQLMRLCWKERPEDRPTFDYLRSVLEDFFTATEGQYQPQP
Chain of Lyn (P07948 whole entry): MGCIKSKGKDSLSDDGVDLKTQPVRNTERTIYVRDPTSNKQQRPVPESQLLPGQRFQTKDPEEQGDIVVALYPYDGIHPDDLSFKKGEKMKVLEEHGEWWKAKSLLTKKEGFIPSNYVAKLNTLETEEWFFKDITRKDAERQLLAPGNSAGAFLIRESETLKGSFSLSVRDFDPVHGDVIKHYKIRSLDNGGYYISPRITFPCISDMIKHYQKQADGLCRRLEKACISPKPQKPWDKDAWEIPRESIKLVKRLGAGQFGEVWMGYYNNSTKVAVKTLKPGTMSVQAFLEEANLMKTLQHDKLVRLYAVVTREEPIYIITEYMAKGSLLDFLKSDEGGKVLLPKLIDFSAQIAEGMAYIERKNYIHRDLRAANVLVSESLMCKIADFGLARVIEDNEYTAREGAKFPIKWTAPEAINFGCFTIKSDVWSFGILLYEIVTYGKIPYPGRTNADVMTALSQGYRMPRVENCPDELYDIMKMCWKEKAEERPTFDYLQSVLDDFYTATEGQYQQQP
Chain of C-src (P12931 whole entry): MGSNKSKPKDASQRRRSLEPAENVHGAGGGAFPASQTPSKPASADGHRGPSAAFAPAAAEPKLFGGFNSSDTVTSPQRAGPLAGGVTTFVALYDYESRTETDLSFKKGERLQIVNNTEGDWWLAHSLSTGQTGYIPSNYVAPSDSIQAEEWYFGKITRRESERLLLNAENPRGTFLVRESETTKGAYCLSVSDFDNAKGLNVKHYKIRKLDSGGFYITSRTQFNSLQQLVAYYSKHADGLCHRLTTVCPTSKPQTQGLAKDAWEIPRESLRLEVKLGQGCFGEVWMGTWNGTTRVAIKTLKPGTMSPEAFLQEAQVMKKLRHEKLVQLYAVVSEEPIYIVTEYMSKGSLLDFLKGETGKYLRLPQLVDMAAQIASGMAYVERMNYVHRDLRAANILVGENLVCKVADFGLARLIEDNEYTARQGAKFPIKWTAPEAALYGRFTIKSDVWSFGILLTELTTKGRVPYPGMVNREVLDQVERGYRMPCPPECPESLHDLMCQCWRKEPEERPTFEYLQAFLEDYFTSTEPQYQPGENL
T1 sequence (Q06187 whole entry): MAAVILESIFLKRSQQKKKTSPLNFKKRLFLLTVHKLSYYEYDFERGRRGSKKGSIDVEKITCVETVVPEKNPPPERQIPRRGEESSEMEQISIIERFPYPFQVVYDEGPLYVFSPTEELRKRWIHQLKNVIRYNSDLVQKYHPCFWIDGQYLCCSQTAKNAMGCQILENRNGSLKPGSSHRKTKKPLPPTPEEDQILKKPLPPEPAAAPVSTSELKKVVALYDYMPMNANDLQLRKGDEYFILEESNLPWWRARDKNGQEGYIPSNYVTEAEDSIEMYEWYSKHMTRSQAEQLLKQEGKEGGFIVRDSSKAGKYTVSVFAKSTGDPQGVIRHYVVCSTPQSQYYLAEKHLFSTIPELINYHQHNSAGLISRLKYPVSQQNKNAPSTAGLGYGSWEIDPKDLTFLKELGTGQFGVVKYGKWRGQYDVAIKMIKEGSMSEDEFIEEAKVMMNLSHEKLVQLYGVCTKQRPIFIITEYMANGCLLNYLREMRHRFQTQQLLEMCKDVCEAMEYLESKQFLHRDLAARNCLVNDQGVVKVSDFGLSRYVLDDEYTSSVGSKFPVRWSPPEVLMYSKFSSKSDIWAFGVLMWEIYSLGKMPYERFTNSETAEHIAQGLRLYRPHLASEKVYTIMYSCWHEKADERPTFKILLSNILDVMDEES

For `CN(C)C/C=C/C(=O)N1CC[C@@H](n2nc(-c3ccc(Cl)cc3)c3c(N)ncnc32)C1` [Example 1, (E)-1-((R)-3-(4-amino-3-(4-chlorophenyl)-1H-pyrazolo[3,4-d]pyrimidin-1-yl)pyrrolidin-1-yl)-4-(dimethylamino)but-2-en-1-one], the IC50 (commonly the concentration needed to halve the response being measured) against Btk was under 100 nM; on BMX, under 100 nM; against Tec, under 100 nM; against C-src it was under 100 nM; on CSK it was 100 to 1000 nM; against Lck, 100 to 1000 nM. For the same molecule, the IC50 on EGFR is 100 to 1000 nM; against Lyn, 100 to 1000 nM; on RET, 100 to 1000 nM; against BLK, under 100 nM.
Consider `COCCOc1ccc(-c2nn([C@@H]3CCN(C(=O)/C=C/CN(C)C)C3)c3ncnc(N)c23)cc1` [Example 2, (E)-1-((R)-3-(4-amino-3-(4-(2-methoxyethoxy)phenyl)-1H-pyrazolo[3,4-d]pyrimidin-1-yl)pyrrolidin-1-yl)-4-(dimethylamino)but-2-en-1-one], for which the IC50 at Btk was under 100 nM; against BMX it was under 100 nM; against Tec, 100 to 1000 nM; on C-src, over 1000 nM; against CSK, over 1000 nM; at Lck, over 1000 nM. Besides, the IC50 at Lyn was over 1000 nM; against RET, over 1000 nM; against BLK, under 100 nM.
For `CN(C)C/C=C/C(=O)N1CC[C@@H](n2nc(-c3ccc(F)cc3)c3c(N)ncnc32)C1` [Example 3, (R,E)-1-(3-(4-amino-3-(4-fluorophenyl)-1H-pyrazolo[3,4-d]pyrimidin-1-yl)pyrrolidin-1-yl)-4-(dimethylamino)but-2-en-1-one], the IC50 against Btk was under 100 nM; against BMX it was under 100 nM; against Tec, under 100 nM; against C-src, 100 to 1000 nM; on CSK, over 1000 nM; at Lck it was over 1000 nM. The IC50 on EGFR is over 1000 nM; at Lyn it was over 1000 nM; against RET it was over 1000 nM; against BLK, 100 to 1000 nM.
As for `Cc1ccc(-c2nn([C@@H]3CCN(C(=O)/C=C/CN(C)C)C3)c3ncnc(N)c23)cc1` [Example 4, (R,E)-1-(3-(4-amino-3-p-tolyl-1H-pyrazolo[3,4-d]pyrimidin-1-yl)pyrrolidin-1-yl)-4-(dimethylamino)but-2-en-1-one], the IC50 against Btk is under 100 nM; against BMX, under 100 nM; against Tec it was under 100 nM; against C-src, 100 to 1000 nM; at CSK, over 1000 nM; against Lck it was 100 to 1000 nM. In addition, the IC50 is 100 to 1000 nM against EGFR, 100 to 1000 nM at Lyn, 100 to 1000 nM at RET and under 100 nM at BLK.
In the case of `CN(C)C/C=C/C(=O)Nc1ccc(-n2nc(-c3ccc(Cl)cc3)c3c(N)ncnc32)cc1` [Example 17, (E)-N-(4-(4-amino-3-(4-chlorophenyl)-1H-pyrazolo[3,4-d]pyrimidin-1-yl)phenyl)-4-(dimethylamino)but-2-enamide], the IC50 was under 100 nM on Btk; under 100 nM against BMX; under 100 nM against Tec; under 100 nM on C-src; 100 to 1000 nM on CSK; under 100 nM against Lck. Further, the IC50 on EGFR, against Lyn and at BLK was under 100 nM throughout.
For the molecule `COc1cc(-c2nn(-c3cccc(N(C)C(=O)/C=C/CN(C)C4CC4)c3)c3ncnc(N)c23)ccc1C` [Example 24, (E)-N-(3-(4-amino-3-(3-methoxy-4-methylphenyl)-1H-pyrazolo[3,4-d]pyrimidin-1-yl)phenyl)-4-(cyclopropyl(methyl)amino)-N-methylbut-2-enamide], the IC50 against Btk was under 100 nM; against BMX, under 100 nM; at Tec, under 100 nM; against C-src it was 100 to 1000 nM; against CSK, over 1000 nM; at Lck it was 100 to 1000 nM. The half-maximal inhibitory concentration (IC50) against Lyn was under 100 nM; against RET, over 1000 nM; on BLK it was under 100 nM.
For the molecule `CN(C(=O)/C=C/CN(C)C1CC1)c1cccc(-n2nc(-c3ccc(Cl)cc3)c3c(N)ncnc32)c1` [Example 25, (E)-N-(3-(4-amino-3-(4-chlorophenyl)-1H-pyrazolo[3,4-d]pyrimidin-1-yl)phenyl)-4-(cyclopropyl(methyl)amino)-N-methylbut-2-enamide], the IC50 at Btk is under 100 nM; against BMX, under 100 nM; against Tec, under 100 nM; at C-src, 100 to 1000 nM; on CSK, over 1000 nM; against Lck, over 1000 nM. In addition, the concentration for half-maximal inhibition (IC50) against EGFR is under 100 nM; on Lyn it was over 1000 nM; against BLK, 100 to 1000 nM.
